According to patent publication US20230117859A1, “INHALED XENON THERAPY IN NEURODEGENERATIVE DISEASE” (The Brigham and Women`s Hospital, Inc., priority 2020, published 2023):

Columns and labels:
[1] = tested on: FCRLS+ microglia in APP/PS1 mice; assay: RNAseq of FCRLS+ microglia from Xe-treated APP/PS1 mice; format: in vivo, mouse
Source text: Based on recent findings that danger signals (dead neurons, neuritic axons and Ab peptides) alter functional phenotype of microglia from the homeostatic (M0) to neurodegenerative (MGnD) phenotype in AD, we hypothesized that Xe-gas treatment has a protective immunomodulatory role to restore homeostatic ‘sensome’ microglial functions in neurodegenerative diseases. To address whether Xe-treatment will restore functional microglia and suppress AD-like pathology in APP-PS1^30 mice, we started treatment with Xe at 2 months of age (at the onset of amyloid deposition—early stage) for 8 weeks (once a week for 40 minutes). Of note, these mice start to develop plaques at 6 weeks of age with saturation around 8 months of age. To treat mice with xenon gas we constructed a special chamber which can control supply of Xe and atmospheric gas (FIG. 3A). The closed-circuit system pumps recirculated gas through soda-lime to absorb CO2. CO2 and O2 concentrations were continuously monitored. The gas mixture was premixed in the outside container with excessive pressure. That lead to approximately 70% Xe and 20% 02 in the chamber. When 02 concentration reduced, additional gas mixture was supplied from the mixing container. The system was optimized to treat simultaneously up to 6 mice. Two types of mice were used: APP/PS1 mice and Wild Type mice as a control. The groups contained both males and females who were housed and treated separately. In each group we subjected portion of the mice to Xe treatment, and another portion was used as control by treatment with atmospheric air (FIG. 3B). We isolated FCRLS^+ microglia by FACS and performed RNAseq analysis.

[2] = tested on: Apoe in CD68+ phagosomes in APP/PS1 mice; assay: Apoe engulfed in CD68+ phagosomes in APP/PS1 mice; format: in vivo, mouse
Description: APP-PS1 and WT mice were exposed to Xenon vs. normal air in vivo for 8 weeks. After that, the mice were sacrificed and perfused with Hanks' Balanced Salt solution (HBSS). The mouse brain was separated, and the right hemisphere was fixed in 4% PFA. After 24 hours the hemisphere was then transferred to a 30% sucrose solution for 48 hours. Brains were later frozen in Tissue-TeK O.C.T. and stored at −80 until ready to be cut. […] sagittal brain sections were cut with a cryostat and kept free floating in cryoprotectant solution. On the first day of staining, free floating brain sections were washed twice with phosphate buffered saline (PBS) and then incubated for one hour in blocking buffer (PBS, 0.1% Triton, 1% Bovine Serum Albumin, 10% Normal Horse Serum). Afterwards, the sections were incubated with primary antibody [Mouse-anti-Apoe (1:1000) and Rat-anti-CD68 (1:200)] in pre-blocking buffer (PBS, 0.1% Triton, 1% Bovine Serum Albumin, 5% Normal Horse Serum) on a shaker overnight at 4° C. The following day, the sections were washed three times with PBS. […] For quantification of the percentage of Apoe engulfed in CD68^+ phagosomes, acquired images were imported to Fiji software (ImageJ). […] The overlap of the staining/CD68+ staining was quantified in both groups. […]

[3] = tested on: platelets and red blood cells, Lymphocyte-like Jurkat cells, H9C2 and U937 cells; assay: Anti-apoptotic effect of Xe-gas on a variety of biological cells; format: cell-based, human
Source text: (§1) FIGS. 7A-D. Xe-treatment prevents apoptosis in variety of cells. A. Viability of lymphocyte-like Jurkat cell after 1 day storage. […] C. Viability of monocyte-like U-937 cells after 1 day storage. D. Viability of monocyte-like U-937 cells after 14 days storage.
(§2) It is known that Xe treatment protects neurons from apoptosis by reducing intracellular calcium, protecting mitochondrial membranes, and attenuating cell damage caused by reactive oxygen species (ROS)^28,29.

U-937 cells = assay: Apoptosis in stored U-937 cells; format: cell-based, human; conditions: xenon vs no gas
Source text: as §1, §2

[4] = tested on: dN-phagocytic microglia (MG-dNΦ); assay: Acute neurodegeneration mouse model (dead neurons injection), RNA-Sequencing of microglia; format: in vivo
Description: We developed a new acute neurodegeneration mouse model to induce neurodegenerative MGnD-microglia^36. In brief, primary neurons (d7-d10) were typically cultured one week after initiation of culture. Neurons were removed from the surface of the plate by multiple washed with PBS. The neurons were then incubated under UV light (302 nm) at an intensity of 6315 W for 15 minutes to induce apoptosis. After this step the neurons were kept on ice. The cells were collected, spun down via centrifugation, and resuspended in 1 ml PBS. Next they were stained with the labeling dye (Alexa405 NHS Ester, Invitrogen, A3000) for 15 min at 37° C., protected from light. Neurons were then washed, spun and resuspended. Number of apoptotic cells was determined using a trypan blue stain and a cellometer. Neurons were resuspended at a density of 50,000 cells per μl.
These apoptotic dead neurons (dN) injected into the cortex and hippocampus of naïve mice induced the recruitment of P2ry12^+ microglia towards the site of injection. P2ry12^+ microglia changed morphology from an M0-homeostatic non-phagocytic (MG-nΦ) phenotype to an amoeboid-phagocytic (MG-dNΦ) phenotype at the vicinity of the injection site. Induction of MGnD microglia was not detected in PBS-injected control brains. […] Trem2 expression has been shown previously, including by our laboratory and others, to have beneficial effect on microglia recruitment towards Aβ-plaques^61-63, associated with restriction of AD^64. Moreover, TREM2 has been recently identified as a receptor for Aβ^65. […] This provides evidence that Xe-gas treatment has a protective immunomodulatory role to induce microglia protective functions to treat AD.

[5] = tested on: 6E10+ Abeta plaques and Clec7a+ MGnD microglia in APP/PS1 mice; assay: Immunostaining of Ab load (6E10) and Clec7a+ MGnD microglia in cortex of APP/PS1 mice; format: in vivo, mouse
Description: APP-PS1 and WT mice were sacrificed and perfused with Hanks' Balanced Salt solution (HBSS). The mouse brains were separated, and the right hemispheres fixed in 4% PFA. After 24 hours the hemispheres were then transferred to a 30% sucrose solution for 48 hours. Brains were later frozen in Tissue-TeK O.C.T. and stored at −80 until ready to be cut. […] sagittal brain sections were cut with a cryostat and kept free floating in cryoprotectant solution. On the first day of staining, free floating brain sections were washed twice with phosphate buffered saline (PBS) and then incubated for one hour in blocking buffer (PBS, 0.1% Triton, 1% Bovine Serum Albumin, 10% Normal Horse Serum). Afterwards, the sections were incubated with primary antibody [Mouse-anti-Abeta Ab (1:1000, Biolegend, 6E10) and Rat-anti-Clec7a (1:300, Invivogen, mabg-mdect)] in pre-blocking buffer (PBS, 0.1% Triton, 1% Bovine Serum Albumin, 5% Normal Horse Serum) on a shaker overnight at 4° C. The following day, the sections were washed three times with PBS. Secondary antibodies (Donkey-anti-mouse-Cy3 (1:800, JIR, 715-165-150) and Goat-anti-Rat-647 (1:800, Invitrogen, A-21247)) in pre-blocking buffer were added to the sections for 1 hour at room temperature. After washing the sections 3 times with PBS, they were moved onto glass slides and covered with a glass coverslip and DAPI. Then images were taken by Leica DMi8 microscope. 4-6 images of prefrontal cortex with 10× magnification were taken per brain section (3 brain sections were stained per mouse, n=3-5).
For quantification of MGnD and Ab load, acquired images were imported to Fiji software (ImageJ). Then the data channels were separated. Gaussian filtering was used to remove noise. Next, the MGnD and plaques were shown using automatic thresholding methods in Fiji (with “Triangle” thresholding setting for MGnD and “Otsu” for Ab load 6E10). Finally, the percentage of the MGnD and Ab plaques over the cortical area was calculated and averaged, indicating the distribution of MGnD and Ab plaques in the prefrontal cortex.

EAE in C57BL6 animals = assay: Experimental autoimmune encephalomyelitis (EAE) model; format: in vivo, mouse
Description: FIGS. 9A-E. Xenon treatments delayed EAE symptoms. A. Scheme representative of experimental design used. C57BL6 animals were immunized with 150 ug of MOG diluted v/v in CFA followed by two doses of B. Pertussis toxin (200 ng) applied during immunization and 48 hours later. The treatment with xenon consisted of a 40 minutes exposure twice a week starting on day 0. After clinical evaluation the animals were euthanized at the peak of the disease and the frequency of inflammatory cells evaluated by flow cytometry and IHC. B. Score curve from clinical signs. C. Evaluation of microglia cells from spinal cord by flow cytometry. Gate based on population CD45+, CD11b+, Ly6C−, Clec12a−. D. T Helper cells evaluation by flow cytometry. E. Immunofluorescence of spinal cord from animals on day 17th. At top the control animals and at the bottom the animals treated with Xenon. The tissue was stained for Tmem119, Clec7a and MBP, quantification measured by the Fiji ImageJ software. Statistical analysis: T-test. In order to evaluate the effects of Xenon as a possible candidate for Multiple Sclerosis (MS) treatment, we development a new protocol of exposition. We used the experimental autoimmune encephalomyelitis (EAE) model that mimics part of the mechanisms presents in MS. The induction of this model is due to the combination of the oligodendrocyte myelin (MOG) diluted in complete Freund's adjuvant (CFA) to break immunological tolerance and initiate the development of autoimmunity in these animals. In association we give two 200 ng doses of Bordetella Pertussis toxin that helps in increasing the permeability of the blood-brain barrier allowing the entry of immune cells to the spinal cord. The treatment with xenon was divided into 5 exposures of 40 minutes divided twice a week in the concentration of 3 PSI of xenon with 1 PSI of oxygen with the oxygen and CO2 concentration constantly measured. This treatment took place from day 0 to day 15 after immunization, with the animals' euthanasia on day 17 (See FIG. 9A). The clinical evaluation started on day 8 with the clinical signs being classified into: 0 no disease, 1—limp tail, 2—weak/partially paralyzed hind legs, 3—completely paralyzed hind legs, 4—complete hind and partial front leg paralysis, 5—complete paralysis/death.

[6] = tested on: cortical neurons and basal forebrain cholinergic neurons; conditions: mild excitotoxic stress by continued exposure to PDC; cited from earlier work
[7] = Xe-gas for one hour immediately after dead neurons injection

Structure (SMILES): [Xe] [Xenon]
- cytokines induced in MGnD-microglia associated with Aβ-plaques, such as Spp1, Apoe, and Igf1 [1]: suppresses
- Bhlhe40 in microglia ([1]; Xe once a week for 40 minutes for 8 weeks): significantly reduced
- expression of inflammatory genes including App, Lpl, IIlb, Spp1 and Apoe in microglia ([1]; Xe once a week for 40 minutes for 8 weeks, approx. 70% Xe and 20% O2): suppressed
- APOE in the plaque region ([2]; APP/PS1 mice): reduced
- APOE phagocytosed by CD68+ cells ([2]; APP/PS1 mice exposed to Xenon vs. normal air for 8 weeks): significant reduction
- anti-apoptotic effect [3]: profound anti-apoptotic effect
- apoptosis in stored U-937 cells (U-937 cells): inhibited apoptosis
- Trem2 expression in microglia [4, 7]: significantly induced
- expression of homeostatic genes such as Siglech, Cst3, Fcgrt and Clqb [4, 7]: induces expression
- homeostatic and phagocytosis-related genes in MG-dNΦ ([4]; Xenon vs. normal air in vivo, RNA-Sequencing): induces
- % positive area stained by Clec7a ([5]; APP/PS1 mice, cortex, compared to the control group): significantly decreased
- % cortical area of 6E10+ Abeta plaques ([5]; APP/PS1 mice, prefrontal cortex, compared to the control group): significant reduction
- number of plaques of different sizes ([5]; all groups of different plaque sizes): reduction in all groups
- number of plaques, plaque size 0-100 um2 ([5]; plaque size 0-100 um2): reduction reached significance
- clinical signs (EAE score) (EAE in C57BL6 animals; 5 exposures of 40 minutes twice a week, day 0 to day 15): delay
- expression of CD44 (activation marker) in T lymphocytes (EAE in C57BL6 animals; flow cytometry): tendency to lower expression
- frequency of IFNg in T lymphocytes (EAE in C57BL6 animals; flow cytometry): higher frequency
- frequency of clec7a+ cells in the spinal cord (EAE in C57BL6 animals; immunohistochemistry, day 17): decrease in the frequency
- frequency of microglial cells positive for Clec7a (EAE in C57BL6 animals; spinal cord, flow cytometry): lower frequency
- frequency of microglial cells positive for Tmem119, PD1 and CD206 (EAE in C57BL6 animals; spinal cord, flow cytometry): tended to have a higher frequency
- demyelination (EAE in C57BL6 animals; spinal cord, immunohistochemistry, day 17): tendency of less demyelination
- antiapoptotic effect on neurons in AD cell models [6]: direct antiapoptotic effect
